Experimental findings from ChEMBL document CHEMBL5104189, “Piptide Chemotypes for Perturbation of the Interaction of Urokinase with Its Receptor” (J Med Chem, 2022) are described below.

Assay [1] concerns the target T1, Urokinase-type plasminogen activator/surface receptor (Homo sapiens, UniProt P00749+Q03405). The experiment in a line: Inhibition of uPAR/uPA (unknown origin) interaction by ELISA. The format is protein assay. On the technique in general: ELISA stands for enzyme-linked immunosorbent assay.
The target of assay [2] is T1, Urokinase-type plasminogen activator/surface receptor. The experiment in a line: Inhibition of uPAR/uPA (unknown origin) interaction assessed as dissociation constant by fluorescence polarization (FP) assay. The format is protein assay. In general terms: Fluorescence polarisation rises when a labelled molecule tumbles more slowly, as on binding a larger partner.
Assay [3] concerns MDA-MB-231. Description: Antimigratory activity in human MDA-MB-231 cells assessed as relative migration at 5 to 50 uM by scratch wound healing assay. The assay is classed as functional, cell-based. The note with it: dose 5-50 µM.
Assay [4] relates to MDA-MB-231. Description: Antimigratory activity in human MDA-MB-231 cells assessed as scratch closure speed at 5 to 50 uM by scratch wound healing assay. The format is functional, cell-based. The following applies: dose 5-50 µM.
The test system of assay [5] is MDA-MB-231. The experiment in a line: Anti-invasive activity in human MDA-MB-231 cells assessed as relative invasion at 5 to 50 uM by scratch wound healing assay. The assay is classed as functional, cell-based. The note with it: dose 5-50 µM.

Calls of active or inactive are those of the source. No cut-off for these calls is given here.

By IC50 is commonly meant the concentration that inhibits the measured activity by half. The term Ki denotes the dissociation constant of the complex between target and ligand, obtained from inhibition or displacement. `NCCCC[C@H](C(=O)N1CCN([C@@H](CO)C(N)=O)CC1)n1cc([C@@H](Cc2ccccc2)N2C(=O)N[C@@H](CO)C2=O)nn1` gave an IC50 in assay [1] of 2.45 µM. Further, the Ki in assay [2] is 2.2 µM. In addition, in the assay with MDA-MB-231 [3], the outcome was Active.
`CC[C@H](C)[C@@H](C(N)=O)n1cc([C@@H](CO)NC(=O)N2CCN([C@@H](CO)C(=O)N3CCN([C@@H](CCCCN)C(=O)O)CC3)CC2)nn1` registered a half-maximal inhibitory concentration (IC50) in assay [1] of 2.85 µM. The inhibition constant (Ki) in assay [2] was 2.56 µM.
The matching figures for `NCCCC[C@H](C(=O)N1CCN([C@@H](Cc2ccccc2)C(N)=O)CC1)N1CCN(C(=O)[C@H](N)CO)CC1`: 3.06 µM and 6.2 µM.
The matching figures for `CC[C@H](C)[C@@H](C(N)=O)n1cc([C@@H](CO)N2C(=O)N[C@@H](Cc3ccccc3)C2=O)nn1`: 8.35 µM and 7.5 µM.
The matching figures for `Cc1cccc2c(C(=O)N3CCN(c4c(C)n(C)c(=O)n(C)c4=O)CC3)cc(-c3ccccc3)nc12`: 15.5 µM and 2.5 µM.
`Cc1ccc(N2C(=O)C(O)=C(C(=O)c3ccc(Cl)cc3)C2c2cccc(F)c2)cc1Br` (centres undefined): the IC50 in assay [1] is 18.4 µM. The Ki in assay [2] is 0.7 µM.
`NCCCC[C@H](C(=O)N1CCN([C@H](Cc2ccccc2)C(N)=O)CC1)N1CCN(C(=O)[C@H](N)CO)CC1` had a 50% inhibitory concentration (IC50) in assay [1] of 3.06 µM. In addition, in assay [2], the Ki was found to be 2.75 µM. Also, the result in the assay with MDA-MB-231 [4] and in the assay with MDA-MB-231 [5] was Active.
With `NC(=O)C[C@H](C(=O)N1CCN([C@H](CO)C(N)=O)CC1)N1CCN(C(=O)[C@H](N)Cc2ccccc2)CC1`, in assay [1], half-maximal inhibition (IC50) required 14.7 µM. Further, the Ki in assay [2] amounted to 13.2 µM.
